Publication PMC8795383, “Docking-guided rational engineering of a macrolide glycosyltransferase glycodiversifies epothilone B” (Communications Biology, 2022)
≈ marks a conversion by molar mass, not a printed value. Read-outs that look alike come from different tables or passages of the source.

Experiments:
[1] = test system: hepatocyte cell line HL-7702; test: MTT cytotoxicity assay; type: cell-based, human
Text: (§1) NDP-glucose (UDPG, ADPG, TDPG, and GDPG), UDP-N-acetylglucosamine (UDP-GlcNAc), UDP-galactose (UDP-Gal), and UDP-glucuronic acid (UDP-GlcA) were purchased from Sigma-Aldrich (St. Louis, MO, USA). UDP-GlcNAz, UDP-GalNAz, UDP-GlcNTFA, UDP-GalNTFA, UDP-GalNAc, UDP-GalA, CMP-Neu5Ac, GDP-Fuc and GDP-Man were kindly provided by Professor Junqiang Fang[59]–[63]. Epothilone B was purchased from Zhejiang Hisun Pharmaceutical Co., Ltd. The human liver carcinoma cell line HepG2 and human hepatocyte cell line HL-7702 were purchased from Gaining (Gaining Bio. Co., Ltd, Shanghai, China). The cells were cultivated in T-25 flasks in a Thermo Scientific CO2 incubator in a humidified environment at 37°C and 5% CO2. HepG2 cells were preserved in DMEM (Gibco, Thermo Fisher Scientific, Waltham, MA, USA), while HL-7702 cells were preserved in RPMI-1640 (Gibco, Thermo Fisher Scientific, Waltham, MA, USA). All cultures contained 10% fetal calf serum and 1% penicillin C/streptomycin. All chemicals and reagents are of analytical grade.
(§2) By using the MTT colorimetric assay, the antitumor and cytotoxicity of EpoB and its glucosides were tested against the liver carcinoma cell line HepG2 and hepatocyte cell line HL-7702, respectively. The cells were seeded in a 96-well microtiter plate, and the wall-attached cells were treated with varying concentrations of drugs by dilution from 300 μM to 0.1 μM for EpoB glycosides (dissolved in DMSO). After 48 h of incubation with the test compounds, the cultures were treated with MTT (2 mg/mL) solution, and the cells were incubated for an additional 4 h at 37°C until a purple precipitate was visible. The purple formazan crystals were dissolved in DMSO, and the absorbance of each sample was measured at 492 nm using a microplate reader. All MTT assay experiments were performed in triplicate, and IC50 values were calculated using GraphPad Prism software (Version 6.01)[26].

HepG2 cells [2] = test: Cellular intake assay (HPLC-DAD); type: in vitro ADME, human; conditions: HepG2, 5 μM, 1 h
Procedure: HepG2 cells (1 × 10^5−1 × 10^6 cells/mL) were cultivated overnight at 37°C and then treated with 5 μM EpoB and glycosides for 1 h. After removing the supernatant, the cells were sequentially rinsed with PBS buffer, trypsinized, and then washed with DMEM. Next, the cells were suspended in acetone, disrupted by ultrasonication, and centrifuged at 12000 rpm for 10 min to remove the debris. The resulting supernatants were dried with nitrogen and then redissolved in 200 μL of methanol. Finally, the compounds were analyzed by HPLC-DAD at 249 nm. Each experiment was conducted in three replicates. The concentrations of EpoB and its glycosides (cellular intake) were calculated based on the linear fitting regression equations of the HPLC peak areas.

physchem = type: physicochemical; conditions: water
Procedure: The water solubility of EpoB and its glycosides was determined using the minimum shake-flask solubility method[26],[75].

[3] = test system: liver carcinoma cell line HepG2; test: MTT antitumor assay; type: cell-based, human
Text: as §1, §2

HepG2 cells [4] = test: Immunofluorescence confocal imaging of tubulin; type: cell-based, human; conditions: HepG2, 24 h
Procedure: Freshly trypsinized HepG2 cells (1 × 10^4−1 × 10^5) were seeded in a 12-well plate and cultivated for 24 h with DMEM (Gibco, Thermo Fisher Scientific, Waltham, MA, USA). Cells were treated with EpoB and 1a at different concentrations (50 nM, 500 nM, and 5 μM) according to the IC50 values for 24 h. The supernatants were removed, and the cells were washed with PBS buffer 2–3 times. The cells were further fixed with 4% paraformaldehyde for 1 h and then permeabilized with 0.2% Triton X-100 (diluted in PBS buffer) for 10 min. Next, the cells were blocked with bovine serum albumin (BSA) for 30 min and incubated with a primary antibody against β-tubulin (1:50, diluted in 2% BSA, β-tubulin Rabbit Monoclonal Antibody, Beyotime Biotechnology) for 1 h at room temperature. After that, the cells were treated with Alexa Fluor 488 goat anti-rabbit IgG (H + L) (secondary antibody, 1:500, diluted in 2% BSA, Beyotime Biotechnology) for another 1 h. The supernatants were removed, the cells were washed, and the nuclei were labeled with DAPI for 10 min. Images were collected using an Olympus BX81 fluorescence microscope system (Olympus, Tokyo, Japan) and a confocal microscope (UltraVIEW®VoX).

BsGT-1 M296A = molecular target: T1, BsGT-1 M296A (Bacillus subtilis, UniProt O34539, M296A); test: Glycosylation kinetics, BsGT-1 M296A mutant; type: biochemical; conditions: EpoB converted to 1i, sugar donor 2i
T1 construct: made in house; host or cells: E. coli BL21 (DE3)
Procedure: (§3) Kinetic parameters of BsGT-1 and its mutants for the glycosylation of epothilone B were measured in a reaction mixture (50 μl) containing 20 μg/mL protein, saturated sugar donors, different concentrations of epothilone B, and 50 mM Tris–HCl buffer (50 mM Tris–HCl, pH 7.5, 10 mM MgCl2) at 37°C for 10 min in triplicate. The kinetic values were determined by fitting the Michaelis–Menten curve to the data using the nonlinear regression method (Supplementary Figs. 13–14).

BsGT-1 Q318C = molecular target: T2, BsGT-1 Q318C (Bacillus subtilis, UniProt O34539, Q318C); test: Glycosylation kinetics, BsGT-1 Q318C mutant; type: biochemical; conditions: EpoB converted to 1e, sugar donor 2e
T2 construct: made in house; host or cells: E. coli BL21 (DE3)
Procedure: as §3

BsGT-1 F231S = molecular target: T3, BsGT-1 F231S (Bacillus subtilis, UniProt O34539, F231S); test: Glycosylation kinetics, BsGT-1 F231S mutant; type: biochemical; conditions: EpoB converted to 1h, sugar donor 2h
T3 construct: made in house; host or cells: E. coli BL21 (DE3)
Procedure: as §3

BsGT-1 I62A = molecular target: T4, BsGT-1 I62A (Bacillus subtilis, UniProt O34539, I62A); type: biochemical; conditions: EpoB converted to 1a, sugar donor 2a
T4 construct: made in house; host or cells: E. coli BL21 (DE3)
Procedure: as §3

[5] = read-out: IC50 HL-7702, MTT, 48 h
[6] = read-out: IC50 HepG2, MTT, 48 h
[7] = Homo sapiens, L02, 48 h, read-out: IC50 HL-7702, MTT, 48 h
[8] = Homo sapiens, HepG2, 48 h, read-out: IC50 HepG2, MTT, 48 h
[9] = 25 °C, thermodynamic from solid, read-out: Solubility

SMILES	IC50 [1, 5]	solubility (physchem; 25°C)	IC50 [3, 6]	IC50 [1, 7]	IC50 [3, 8]	solubility (physchem; [9])	further results
CC(=Cc1csc(C)n1)C1CC2OC2(C)CCCC(C)C(OC2OC(CO)C(O)C(O)C2O)C(C)C(=O)C(C)(C)C(O)CC(=O)O1 (stereo not shown) [1i]	9.13 ± 1.02 µM	3370 ± 550 µg/mL (≈ 5.03 mM)	1.09 ± 0.26 µM	–	–	–	cellular intake rate, lower than that of EpoB (HepG2 cells [2]): 8 fold; activity higher than that of glucose-modified EpoB (1a) ([3]; HepG2, relative to 1a): ~10 fold
CC(=Cc1csc(C)n1)C1CC2OC2(C)CCCC(C)C(OC2OC(CO)C(O)C(O)C2O)C(C)C(=O)C(C)(C)C(O)CC(=O)O1 (stereo not drawn) [1a, EpoB 7-O-β-D glucoside]	27.6 ± 1.76 µM	1550 ± 90 µg/mL (≈ 2.31 mM)	9.84 ± 0.57 µM	–	–	–	cellular intake rate, lower than that of EpoB (HepG2 cells [2]): 12 fold; penetration into tumor cells and interaction with tubulin (HepG2 cells [4]): could penetrate into the tumor cells and interact with tubulin
C/C(=C\c1csc(C)n1)[C@@H]1C[C@@H]2O[C@]2(C)CCC[C@H](C)[C@H](O)[C@@H](C)C(=O)C(C)(C)[C@@H](O)CC(=O)O1 [EpoB, epothilone B]	0.00293 ± 0.00053 µM	–	0.00139 ± 0.0003 µM	< 0.003 µM	< 0.002 µM	–	Km (BsGT-1 M296A): 147 ± 17 µM; kcat (BsGT-1 M296A): 0.0555 ± 0.003 s⁻¹; Km (BsGT-1 Q318C): 95.9 ± 7.98 µM; kcat (BsGT-1 Q318C): 0.164 ± 0.00367 s⁻¹; Km (BsGT-1 F231S): 127 ± 12.9 µM; kcat (BsGT-1 F231S): 0.0723 ± 0.0033 s⁻¹; Km (BsGT-1 I62A): 43.6 ± 4.16 µM; kcat (BsGT-1 I62A): 0.3975 ± 0.023 s⁻¹; solubility (physchem; thermodynamic from solid, 25°C, read-out: Solubility): 190 ± 30 µg/mL (≈ 0.374 mM)
CC(=O)NC1C(OC2C(C)CCCC3(C)OC3CC(C(C)=Cc3csc(C)n3)OC(=O)CC(O)C(C)(C)C(=O)C2C)OC(CO)C(O)C1O (stereo not shown) [1e]	–	–	–	31.1 ± 3.77 µM	19.8 ± 0.88 µM	8220 ± 930 µg/mL (≈ 11.6 mM)	–
C/C(=C\c1csc(C)n1)[C@@H]1C[C@@H]2O[C@]2(C)CCC[C@H](C)[C@H](O[C@@H]2O[C@H](CO)[C@@H](O[C@@H]3O[C@H](CO)[C@@H](O)[C@H](O)[C@H]3O[C@@H]3O[C@H](CO)[C@@H](O)[C@H](O)[C@H]3O)[C@H](O)[C@H]2O)[C@@H](C)C(=O)C(C)(C)[C@@H](O)CC(=O)O1 [1d, epothilone B 7-O-β-D-glucosyl-(1 → 2)-β-D-glucosyl-(1 → 4)-β-D glucoside]	–	184830 ± 3500 µg/mL (≈ 186 mM)	–	–	–	–	IC50 ([1]; MTT, 48 h, read-out: IC50 HL-7702): 42.8 ± 1.15 µM; IC50 ([3]; MTT, 48 h, read-out: IC50 HepG2): 38.2 ± 2.41 µM
CC(=Cc1csc(C)n1)C1CC2OC2(C)CCCC(C)C(OC2OC(CO)C(O)C(O)C2NC(=O)CN=[N+]=[N-])C(C)C(=O)C(C)(C)C(O)CC(=O)O1 (stereo not shown) [1h]	–	–	–	40.4 ± 1.73 µM	30.2 ± 2.91 µM	4340 ± 540 µg/mL (≈ 5.77 mM)	–
CC(=Cc1csc(C)n1)C1CC2OC2(C)CCCC(C)C(OC2OC(CO)C(O)C(O)C2OC2OC(CO)C(O)C(O)C2O)C(C)C(=O)C(C)(C)C(O)CC(=O)O1 [1c, EpoB 7-O-β-D-glucosyl-(1 → 2)-β-D glucoside]	–	–	–	46.6 ± 0.48 µM	34.2 ± 4.16 µM	83000 ± 1540 µg/mL (≈ 99.8 mM)	–
CC(=Cc1csc(C)n1)C1CC2OC2(C)CCCC(C)C(OC2OC(CO)C(O)C(OC3OC(CO)C(O)C(O)C3O)C2O)C(C)C(=O)C(C)(C)C(O)CC(=O)O1 [1b, EpoB 7-O-β-D-glucosyl-(1 → 3)-β-D glucoside]	–	–	–	–	> 100 µM	86400 ± 1450 µg/mL (≈ 104 mM)	–
